In assay [1] the target is T1, Histone deacetylase 1 (Homo sapiens, UniProt Q13547). Nature of the assay: Inhibition of HDAC1 (unknown origin) using compound purified by microgram-scale HPLC work-flow.
The target of assay [2] is T2, Histone deacetylase 2 (Homo sapiens, UniProt Q92769). Briefly: Inhibition of HDAC2 (unknown origin) using compound purified by microgram-scale HPLC work-flow.
Assay [3] deals with T1, Histone deacetylase 1. Nature of the assay: Inhibition of HDAC1 (unknown origin) using compound purified by traditional preparative HPLC work-flow.
The target in assay [4] is T2, Histone deacetylase 2. Nature of the assay: Inhibition of HDAC2 (unknown origin) using compound purified by traditional preparative HPLC work-flow.

T2 sequence (Q92769 whole entry): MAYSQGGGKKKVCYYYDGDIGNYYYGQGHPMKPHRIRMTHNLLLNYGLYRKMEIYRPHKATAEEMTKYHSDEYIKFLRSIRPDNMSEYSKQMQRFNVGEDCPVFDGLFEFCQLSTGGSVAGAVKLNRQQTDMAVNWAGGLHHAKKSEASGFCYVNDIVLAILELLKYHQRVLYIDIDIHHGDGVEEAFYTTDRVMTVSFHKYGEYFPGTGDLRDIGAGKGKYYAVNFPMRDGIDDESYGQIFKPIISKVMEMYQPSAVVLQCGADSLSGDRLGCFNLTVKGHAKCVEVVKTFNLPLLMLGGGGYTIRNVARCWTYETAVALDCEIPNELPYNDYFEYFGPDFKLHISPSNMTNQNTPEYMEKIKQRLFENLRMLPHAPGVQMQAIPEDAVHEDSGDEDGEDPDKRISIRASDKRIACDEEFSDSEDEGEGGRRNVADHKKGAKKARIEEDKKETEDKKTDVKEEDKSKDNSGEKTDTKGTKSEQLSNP
T1 sequence (Q13547 whole entry): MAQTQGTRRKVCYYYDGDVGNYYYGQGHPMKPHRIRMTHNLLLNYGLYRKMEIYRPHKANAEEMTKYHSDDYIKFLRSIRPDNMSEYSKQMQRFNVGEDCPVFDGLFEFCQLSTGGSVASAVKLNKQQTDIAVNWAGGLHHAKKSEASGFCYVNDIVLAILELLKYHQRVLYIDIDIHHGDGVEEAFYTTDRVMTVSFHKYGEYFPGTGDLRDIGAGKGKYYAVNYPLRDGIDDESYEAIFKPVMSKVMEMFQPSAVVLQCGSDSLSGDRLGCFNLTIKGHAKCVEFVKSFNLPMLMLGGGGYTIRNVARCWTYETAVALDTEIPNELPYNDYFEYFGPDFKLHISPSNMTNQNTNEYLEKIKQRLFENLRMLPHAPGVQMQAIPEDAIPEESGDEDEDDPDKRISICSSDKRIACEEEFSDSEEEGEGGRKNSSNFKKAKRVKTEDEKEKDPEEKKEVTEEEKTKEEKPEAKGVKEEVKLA

As a reminder, the IC50 is the midpoint of a concentration-inhibition curve. Low values mean greater potency, high ones weaker potency. As for `CCC(=O)CCCCC[C@H](NC(=O)[C@H]1CC12CCN(CC)CC2)c1ncc(-c2cc(C(=O)OC)c(F)cc2OC)[nH]1`, the IC50 on Histone deacetylase 1 [1] was found to be 31 nM; at Histone deacetylase 2 [2], 154 nM.
For `CCOC(=O)c1cc2cc(OC)c(-c3cnc([C@H](CCCCCC(=O)CC)NC(=O)[C@H]4CC45CCN(CC)CC5)[nH]3)cc2o1`, the IC50 came to 1.1 nM at Histone deacetylase 1 [1] and 9.1 nM against Histone deacetylase 2 [2].
Turning to `CCC(=O)CCCCC[C@H](NC(=O)[C@H]1CC12CCN(C)CC2)c1ncc(-c2cn(C)c3ccccc23)[nH]1`, the IC50 at Histone deacetylase 1 [3] is 0.5 nM; on Histone deacetylase 2 [4], 2.9 nM.
For `CCC(=O)CCCCC[C@H](NC(=O)[C@H]1CC12CCN(C)CC2)c1ncc(-c2ccc(-c3cccnc3)nc2)[nH]1`, the IC50 against Histone deacetylase 1 [1] came to 2.6 nM; against Histone deacetylase 1 [3], 6.5 nM; on Histone deacetylase 2 [2], 14 nM; against Histone deacetylase 2 [4], 30 nM.
Consider `CCC(=O)CCCCC[C@H](NC(=O)[C@H]1CC12CCN(CC)CC2)c1ncc(-c2cc(C(F)(F)F)ccc2OC)[nH]1`, for which the concentration for half-maximal inhibition (IC50) against Histone deacetylase 1 [1] came to 1.8 nM; on Histone deacetylase 2 [2], 16 nM.
As for `CCC(=O)CCCCC[C@H](NC(=O)[C@H]1CC12CCN(CC)CC2)c1ncc(-c2ccc(C(=O)Nc3cc(C(F)(F)F)ccn3)cc2OC)[nH]1`, the IC50 stood at 119 nM against Histone deacetylase 1 [1] and 87 nM against Histone deacetylase 2 [2].
With `CCC(=O)CCCCC[C@H](NC(=O)[C@H]1CC12CCN(C)CC2)c1ncc(-c2ccc(C(=O)NC3CCOC3)cc2)[nH]1` (some centres not stated), the IC50 came to 11 nM against Histone deacetylase 1 [1], 9.1 nM at Histone deacetylase 1 [3], 70 nM against Histone deacetylase 2 [2] and 54 nM at Histone deacetylase 2 [4].
As to `CCOC(=O)C1CC1c1ccc(OC)c(-c2cnc([C@H](CCCCCC(=O)CC)NC(=O)[C@H]3CC34CCN(CC)CC4)[nH]2)c1` (some centres not stated), the IC50 against Histone deacetylase 1 [1] came out at 6.9 nM; on Histone deacetylase 2 [2], 39 nM.
Take `CCC(=O)CCCCC[C@H](NC(=O)[C@H]1CC12CCN(C)CC2)c1ncc(-c2ccc(-n3nc(C)cc3C)cc2)[nH]1`: the IC50 on Histone deacetylase 1 [1] was 12 nM; at Histone deacetylase 1 [3], 14 nM; at Histone deacetylase 2 [2] it was 70 nM; at Histone deacetylase 2 [4], 64 nM.
As to `CCC(=O)CCCCC[C@H](NC(=O)[C@H]1CC12CCN(CC)CC2)c1ncc(-c2cccc(C(F)(F)F)c2OC)[nH]1`, the IC50 against Histone deacetylase 1 [1] came to 13 nM; at Histone deacetylase 2 [2], 63 nM.
On to `CCC(=O)CCCCC[C@H](NC(=O)[C@H]1CC12CCN(C)CC2)c1ncc(C2=CC(=O)N(C)CC2)[nH]1`, for which the IC50 worked out at 302 nM on Histone deacetylase 1 [1], 343 nM against Histone deacetylase 1 [3], 1660 nM on Histone deacetylase 2 [2] and 1590 nM against Histone deacetylase 2 [4].
In the case of `CCC(=O)CCCCC[C@H](NC(=O)[C@H]1CC12CCN(CC)CC2)c1ncc(-c2cc(C#N)ccc2OC)[nH]1`, the IC50 on Histone deacetylase 1 [1] is 12 nM; on Histone deacetylase 2 [2], 62 nM.
As for `CCC(=O)CCCCC[C@H](NC(=O)[C@H]1CC12CCN(C)CC2)c1ncc(-c2cnc3cccnc3c2)[nH]1`, the IC50 on Histone deacetylase 1 [1] came out at 14 nM; at Histone deacetylase 1 [3] it was 28 nM; at Histone deacetylase 2 [2], 92 nM; against Histone deacetylase 2 [4], 161 nM.
Molecule `CCC(=O)CCCCC[C@H](NC(=O)[C@H]1CC12CCN(C)CC2)c1ncc(-c2ccc3[nH]c4ccccc4c3c2)[nH]1` had an IC50 against Histone deacetylase 2 [4] of 1.1 nM.
Turning to `CCC(=O)CCCCC[C@H](NC(=O)[C@H]1CC12CCN(CC)CC2)c1ncc(-c2c(OC)ccc(F)c2F)[nH]1`, the IC50 on Histone deacetylase 1 [1] came to 609 nM; against Histone deacetylase 2 [2], 1550 nM.
Taken in the same sequence, the figures for `CCC(=O)CCCCC[C@H](NC(=O)[C@H]1CC12CCN(CC)CC2)c1ncc(C2=CCC(C)N=C2OC)[nH]1` (some centres not stated) were 14 nM and 1.4 nM.
As for `CCC(=O)CCCCC[C@H](NC(=O)[C@H]1CC12CCN(CC)CC2)c1ncc(-c2c(F)cc(C(=O)Nc3cc(C(F)(F)F)ccn3)cc2OC)[nH]1`, the IC50 against Histone deacetylase 1 [1] came out at 22 nM; on Histone deacetylase 2 [2] it was 320 nM.
For the molecule `CCC(=O)CCCCC[C@H](NC(=O)[C@H]1CC12CCN(C)CC2)c1ncc(-c2cnc(-n3cc(C)cn3)nc2)[nH]1`, the IC50 worked out at 102 nM at Histone deacetylase 1 [1] and 491 nM at Histone deacetylase 2 [2].
Turning to `CCC(=O)CCCCC[C@H](NC(=O)[C@H]1CC12CCN(C)CC2)c1ncc(-c2ccn3ncnc3c2)[nH]1`, the IC50 is 44 nM on Histone deacetylase 1 [1], 70 nM at Histone deacetylase 1 [3], 249 nM at Histone deacetylase 2 [2] and 350 nM at Histone deacetylase 2 [4].
Take `CCC(=O)CCCCC[C@H](NC(=O)[C@H]1CC12CCN(CC)CC2)c1ncc(-c2cc([N+](=O)[O-])ccc2OC)[nH]1`: the IC50 against Histone deacetylase 1 [1] came to 7.8 nM; at Histone deacetylase 2 [2], 43 nM.
For `CCC(=O)CCCCC[C@H](NC(=O)[C@H]1CC12CCN(CC)CC2)c1ncc(-c2cc(C(C)C)c(F)cc2OC)[nH]1`, the IC50 against Histone deacetylase 1 [1] came to 63 nM; at Histone deacetylase 2 [2], 279 nM.
Consider `CCC(=O)CCCCC[C@H](NC(=O)[C@H]1CC12CCN(C)CC2)c1ncc(-c2ccnc(N3CCOCC3)c2F)[nH]1`, for which the IC50 was determined as 22 nM at Histone deacetylase 1 [1], 36 nM on Histone deacetylase 1 [3], 133 nM on Histone deacetylase 2 [2] and 179 nM against Histone deacetylase 2 [4].
Take `CCC(=O)CCCCC[C@H](NC(=O)[C@H]1CC12CCN(CC)CC2)c1ncc(-c2c(F)cccc2OC)[nH]1`: the IC50 on Histone deacetylase 1 [1] came out at 72 nM; on Histone deacetylase 2 [2], 370 nM.
In the case of `CCC(=O)CCCCC[C@H](NC(=O)[C@H]1CC12CCN(C)CC2)c1ncc(-c2ccc(C)nc2OC)[nH]1`, the IC50 against Histone deacetylase 1 [1] turned out to be 3.2 nM; against Histone deacetylase 1 [3], 3.7 nM; at Histone deacetylase 2 [2] it was 18 nM; on Histone deacetylase 2 [4] it was 19 nM.
Taken in the same sequence, the figures for `CCOc1ncc(-c2cnc([C@H](CCCCCC(=O)CC)NC(=O)[C@H]3CC34CCN(C)CC4)[nH]2)cn1` were 100 nM, 143 nM, 583 nM and 749 nM.

These data come from ChEMBL document CHEMBL4680369, “Synthesis of HDAC Inhibitor Libraries via Microscale Workflow” (ACS Med Chem Lett, 2021).
